Results from patent US6737383B1, “Herbicidal oxadiazolidines” (priority 1999, dated 2004).

What was measured:
rice = test: Test B flood test rice; type: in vivo, Oryza sativa
Summary of the method: (§1)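 Read-out is a visual response score from 0 (no effect) to 10 (complete control), assigned by comparison with untreated controls. Treatment was applied at the 2-leaf stage, and plants stayed in the greenhouse for twelve to sixteen days before scoring.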

smallflower flatsedge = test: Test B flood test smallflower flatsedge; type: in vivo, Cyperus difformis
Summary of the method: as §1

velvetleaf = test: Test B pre/postemergence velvetleaf; type: in vivo, Abutilon theophrasti
Summary of the method: (§2)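 Test chemicals in a non-phytotoxic solvent mixture with surfactant were sprayed preemergence onto planted seeds and postemergence onto plants 2 to 18 cm tall (1- to 4-leaf stage). After twelve to sixteen days in a greenhouse, injury was visually rated against untreated controls from 0 (no effect) to 10 (complete control).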

purple nutsedge = test: Test B pre/postemergence purple nutsedge; type: in vivo, Cyperus rotundus
Summary of the method: as §2

pigweed = test: Test B pre/postemergence pigweed; type: in vivo, Amaranthus retroflexus
Summary of the method: as §2

bedstraw = test: Test B pre/postemergence bedstraw; type: in vivo, Galium aparine; settings: for Bedstraw plant response rating: scale of 0 to 10 where 0 is no effect and 10 is complete control
Summary of the method: as §2

soybean = test: Test B pre/postemergence soybean; type: in vivo, Glycine max
Summary of the method: as §2

cocklebur = test: Test B pre/postemergence cocklebur; type: in vivo, Xanthium strumarium
Summary of the method: as §2

wild oat = test: Test B pre/postemergence wild oat; type: in vivo, Avena fatua
Summary of the method: as §2

rape = test: Test B pre/postemergence rape; type: in vivo, Brassica napus
Summary of the method: as §2

giant foxtail = test: Test B pre/postemergence giant foxtail; type: in vivo, Setaria faberii
Summary of the method: as §2

morningglory = test: Test B pre/postemergence morningglory; type: in vivo, Ipomoea hederacea
Summary of the method: as §2

duck salad = test: Test B flood test duck salad; type: in vivo, Heteranthera limosa
Summary of the method: as §1

blackgrass = test: Test B pre/postemergence blackgrass; type: in vivo, Alopecurus myosuroides
Summary of the method: as §2

bamyardgrass = test: Test B flood test barnyardgrass; type: in vivo, Echinochloa crus-galli
Summary of the method: as §1

surinam grass = test: Test B pre/postemergence surinam grass; type: in vivo, Brachiaria decumbens
Summary of the method: as §2

wheat = test: Test B pre/postemergence wheat; type: in vivo, Triticum aestivum
Summary of the method: as §2

crabgrass = test: Test B pre/postemergence crabgrass; type: in vivo, Digitaria sanguinalis
Summary of the method: as §2

corn = test: Test B pre/postemergence corn; type: in vivo, Zea mays
Summary of the method: as §2

sugar beet = test: Test B pre/postemergence sugar beet; type: in vivo, Beta vulgaris
Summary of the method: as §2

[1] = Rate 62 g/ha, headed Pre-emergence (flood test species), scale 0 to 10 (0 no effect, 10 complete control)
[2] = Rate 125 g/ha, Pre-emergence, flood test species, scale 0 to 10 where 0 is no effect and 10 is complete control
[3] = Rate 250 g/ha, Pre-emergence, flood-test species, scale 0 to 10, 0 is no effect, 10 is complete control
[4] = Rate 500 g/ha, Pre-emergence, flood test species, scale 0 to 10 (0 no effect, 10 complete control)
[5] = Preemergence, Rate 62 g/ha, scale of 0 to 10 where 0 is no effect and 10 is complete control
[6] = Preemergence, Rate 250 g/ha, scale of 0 to 10 where 0 is no effect and 10 is complete control
[7] = Preemergence, Rate 500 g/ha, scale of 0 to 10 where 0 is no effect and 10 is complete control
[8] = Rate 62 g/ha, Postemergence, scale 0 to 10 (0 no effect, 10 complete control)
[9] = Rate 125 g/ha, Postemergence, scale of 0 to 10 where 0 is no effect and 10 is complete control
[10] = Rate 250 g/ha, Postemergence, scale of 0 to 10 where 0 is no effect and 10 is complete control
[11] = Rate 500 g/ha, Postemergence, scale 0 to 10, 0 no effect, 10 complete control

CC(C)C(C)n1c(=O)on(C(=O)N(c2ccc(F)cc2)C(C)C)c1=O (stereo not shown) [Compound 316]
Rice plant response rating (rice; [1]): 0 | Rice plant response rating (rice; [2]): 0 | Rice plant response rating (rice; [3]): 1 | Rice plant response rating (rice; [4]): 0 | S. Flatsedge plant response rating (smallflower flatsedge; [1]): 0 | S. Flatsedge plant response rating (smallflower flatsedge; [2]): 0 | S. Flatsedge plant response rating (smallflower flatsedge; [3]): 9 | S. Flatsedge plant response rating (smallflower flatsedge; [4]): 9 | Velvetleaf plant response rating (velvetleaf; [5]): 0 | Velvetleaf plant response rating (0 to 10 scale) (velvetleaf; Preemergence, Rate 125 g/ha): 2 | Velvetleaf plant response rating (velvetleaf; [6]): 3 | Velvetleaf plant response rating (velvetleaf; [7]): 6 | Velvetleaf plant response rating (velvetleaf; [8]): 0 | Velvetleaf plant response rating (velvetleaf; [9]): 0 | Plant response rating, Velvetleaf (velvetleaf; [10]): 2 | Nutsedge plant response rating (purple nutsedge; [5]): 0 | Nutsedge plant response rating (0 to 10 scale) (purple nutsedge; Preemergence, Rate 125 g/ha): 0 | Nutsedge plant response rating (purple nutsedge; [8]): 0 | Nutsedge plant response rating (purple nutsedge; [9]): 0 | Plant response rating, Nutsedge (purple nutsedge; [10]): 0 | Redroot pigweed plant response rating (pigweed; [5]): 4 | Redroot pigweed plant response rating (0 to 10 scale) (pigweed; Preemergence, Rate 125 g/ha): 6 | Redroot pigweed plant response rating (pigweed; [6]): 10 | Redroot pigweed plant response rating (pigweed; [7]): 10 | Redroot pigweed plant response rating (pigweed; [8]): 2 | Redroot pigweed plant response rating (pigweed; [9]): 2 | Plant response rating, Redroot pigweed (pigweed; [10]): 3 | Bedstraw plant response rating (bedstraw; Preemergence, Rate 62 g/ha): 0 | Bedstraw plant response rating (0 to 10 scale) (bedstraw; Preemergence, Rate 125 g/ha): 0 | Bedstraw plant response rating (bedstraw; Preemergence, Rate 250 g/ha): 3 | Bedstraw plant response rating (bedstraw; Preemergence, Rate 500 g/ha): 6 | Bedstraw plant response rating (bedstraw; Rate 125 g/ha, Postemergence): 2 | Soybean plant response rating (soybean; [5]): 0 | Soybean plant response rating (0 to 10 scale) (soybean; Preemergence, Rate 125 g/ha): 0 | Soybean plant response rating (soybean; [6]): 0 | Soybean plant response rating (soybean; [7]): 0 | Soybean plant response rating (soybean; [8]): 3 | Soybean plant response rating (soybean; [9]): 3 | Plant response rating, Soybean (soybean; [10]): 4 | Cocklebur plant response rating (cocklebur; [5]): 0 | Cocklebur plant response rating (cocklebur; [6]): 0 | Cocklebur plant response rating (cocklebur; [7]): 2 | Cocklebur plant response rating (cocklebur; [8]): 0 | Cocklebur plant response rating (cocklebur; [9]): 0 | Plant response rating, Cocklebur (cocklebur; [10]): 0 | Cocklebur plant response rating (cocklebur; [11]): 0 | Wild oats plant response rating (wild oat; [5]): 4 | Wild oats plant response rating (0 to 10 scale) (wild oat; Preemergence, Rate 125 g/ha): 4 | Wild oats plant response rating (wild oat; [6]): 6 | Wild oats plant response rating (wild oat; [7]): 6 | Wild oats plant response rating (wild oat; [8]): 0 | Wild oats plant response rating (wild oat; [9]): 0 | Plant response rating, Wild oats (wild oat; [10]): 2 | Rape plant response rating (rape; [5]): 0 | Rape plant response rating (0 to 10 scale) (rape; Preemergence, Rate 125 g/ha): 0 | Rape plant response rating (rape; [6]): 4 | Rape plant response rating (rape; [7]): 4 | Rape plant response rating (rape; [8]): 0 | Rape plant response rating (rape; [9]): 0 | Plant response rating, Rape (rape; [10]): 1 | Giant foxtail plant response rating (giant foxtail; [5]): 9 | Giant foxtail plant response rating (0 to 10 scale) (giant foxtail; Preemergence, Rate 125 g/ha): 10 | Giant foxtail plant response rating (giant foxtail; [6]): 10 | Giant foxtail plant response rating (giant foxtail; [7]): 10 | Giant foxtail plant response rating (giant foxtail; [8]): 0 | Giant foxtail plant response rating (giant foxtail; [9]): 0 | Plant response rating, Giant foxtail (giant foxtail; [10]): 2 | Morningglory plant response rating (morningglory; [5]): 0 | Morningglory plant response rating (0 to 10 scale) (morningglory; Preemergence, Rate 125 g/ha): 0 | Morningglory plant response rating (morningglory; [6]): 0 | Morningglory plant response rating (morningglory; [7]): 0 | Morningglory plant response rating (morningglory; [8]): 3 | Morningglory plant response rating (morningglory; [9]): 4 | Plant response rating, Morningglory (morningglory; [10]): 5 | Ducksalad plant response rating (duck salad; [1]): 0 | Ducksalad plant response rating (duck salad; [2]): 0 | Ducksalad plant response rating (duck salad; [3]): 3 | Ducksalad plant response rating (duck salad; [4]): 0 | Blackgrass plant response rating (blackgrass; [5]): 8 | Blackgrass plant response rating (0 to 10 scale) (blackgrass; Preemergence, Rate 125 g/ha): 10 | Blackgrass plant response rating (blackgrass; [6]): 10 | Blackgrass plant response rating (blackgrass; [7]): 10 | Blackgrass plant response rating (blackgrass; [8]): 0 | Blackgrass plant response rating (blackgrass; [9]): 1 | Plant response rating, Blackgrass (blackgrass; [10]): 4 | Blackgrass plant response rating (blackgrass; [11]): 7 | Barnyardgrass plant response rating (bamyardgrass; [1]): 3 | Barnyardgrass plant response rating (bamyardgrass; [2]): 6 | Barnyardgrass plant response rating (bamyardgrass; [3]): 9 | Barnyardgrass plant response rating (bamyardgrass; [4]): 9 | B. signalgrass plant response rating (surinam grass; [5]): 6 | B. signalgrass plant response rating (0 to 10 scale, 0 is no effect, 10 is complete control) (surinam grass; Preemergence, Rate 125 g/ha): 7 | B. signalgrass plant response rating (surinam grass; [6]): 9 | B. signalgrass plant response rating (surinam grass; [7]): 9 | B. signalgrass plant response rating (surinam grass; [8]): 0 | B. signalgrass plant response rating (surinam grass; [9]): 0 | Plant response rating, B. signalgrass (surinam grass; [10]): 0 | B. signalgrass plant response rating (surinam grass; [11]): 2 | Wheat plant response rating (wheat; [5]): 0 | Wheat plant response rating (0 to 10 scale) (wheat; Preemergence, Rate 125 g/ha): 0 | Wheat plant response rating (wheat; [6]): 2 | Wheat plant response rating (wheat; [7]): 2 | Wheat plant response rating (wheat; [8]): 0 | Wheat plant response rating (wheat; [9]): 0 | Plant response rating, Wheat (wheat; [10]): 2 | Crabgrass plant response rating (crabgrass; [5]): 6 | Crabgrass plant response rating (0 to 10 scale) (crabgrass; Preemergence, Rate 125 g/ha): 8 | Crabgrass plant response rating (crabgrass; [6]): 8 | Crabgrass plant response rating (crabgrass; [7]): 10 | Crabgrass plant response rating (crabgrass; [8]): 0 | Crabgrass plant response rating (crabgrass; [9]): 0 | Plant response rating, Crabgrass (crabgrass; [10]): 0 | Corn plant response rating (corn; [5]): 0 | Corn plant response rating (0 to 10 scale) (corn; Preemergence, Rate 125 g/ha): 0 | Corn plant response rating (corn; [6]): 0 | Corn plant response rating (corn; [7]): 5 | Corn plant response rating (corn; [8]): 0 | Corn plant response rating (corn; [9]): 0 | Plant response rating, Corn (corn; [10]): 0 | Corn plant response rating (corn; [11]): 0 | Sugarbeets plant response rating (sugar beet; [5]): 0 | Sugarbeets plant response rating (0 to 10 scale) (sugar beet; Preemergence, Rate 125 g/ha): 0 | Sugarbeets plant response rating (sugar beet; [6]): 0 | Sugarbeets plant response rating (sugar beet; [7]): 4 | Sugarbeets plant response rating (sugar beet; [8]): 0 | Sugarbeets plant response rating (sugar beet; [9]): 0 | Plant response rating, Sugarbeets (sugar beet; [10]): 0
